In PMC10454396 (International Journal of Molecular Sciences, 2023):
Converted amounts (≈) assume the structure as drawn. Like-named read-outs stand apart in the source and are kept apart here.

How the values were obtained:
[1] = system: Staphylococcus aureus Newman mCherry; experiment: MIC, broth microdilution, mCherry-expressing S. aureus Newman; format: cell-based
Procedure: (§1) Cefazolin was obtained from Acros Organics. Ciprofloxacin hydrochloride, linezolid and vancomycin hydrochloride were obtained from Sigma-Aldrich (St. Louis, MO, USA). Tetracycline hydrochloride was obtained from Alfa Aesar. Sorangicin A was provided by HZI, Braunschweig. Stock solutions were prepared in Milli-Q water or dimethyl sulfoxide (DMSO, Sigma-Aldrich). Minimum inhibitory concentrations (MICs) were determined in cation-adjusted Mueller-Hinton broth (MHB2) using the broth microdilution method as recommended by the Clinical and Laboratory Standards Institute (CLSI). The MIC was defined as the lowest concentration of the antibiotic causing complete inhibition of visible growth of the microorganism (CLSI, 2017).
(§2) 1. In vitro characterization of mCherry expressing Staphylococcus aureus Newman
(§3) 1.1 Minimum inhibitory concentration
(§4) Table S1. Antibiotic susceptibility profile of Staphylococcus aureus Newman. WT: wild type. […]

[2] = system: Staphylococcus aureus Newman WT; experiment: MIC, broth microdilution, S. aureus Newman wild type; format: cell-based
Procedure: as §1, §2, §3, §4

[3] = system: mCherry-expressing S. aureus Newman; experiment: Zebrafish embryo model of S. aureus yolk infection, antibiotic treatment efficacy; format: in vivo, Staphylococcus aureus
Procedure: With the aim to study the in vivo efficacy of drugs, 30 hpf zebrafish embryos were infected with 50 CFU of mCherry-expressing S. aureus Newman. Embryos were then left to recover from injection for two hours and subsequently treated with various reference antibiotics. Antibiotic treatment was performed via bath water immersion as well as via microinjection into the yolk (local treatment) and the caudal vein (systemic treatment) to study whether differences in in vivo activity exist between the three administration routes. Survival was assessed daily until 120 hpf. Additionally, the infection was visualized and quantified by means of fluorescence microscopy at 24 h post treatment (hpt). At the end of every experiment, living embryos (and dead embryos, if possible) were homogenized to determine the remaining bacterial count. Five approved antibiotics from different classes were assessed in vivo. The chosen drugs ought to differ in physicochemical properties, such as molecular weight and polarity, in order to detect a pattern between successful administration routes and the physicochemical properties of the drug. Prior to efficacy assessment, drug-mediated toxicity in zebrafish embryos was investigated using the same administration routes (Figure S3). For microinjection, a fixed dose of 20 to 30 mg/kg was used for each antibiotic. The concentration for bath water immersion was based on the minimum inhibitory concentration (MIC) and the maximum tolerated concentration (MTC) of the drug, whereby it is generally recommended to use 50- to 100-fold the antibacterial MIC to see a positive effect.
Pulled glass capillaries for microinjection (Table S2) were prepared using a micropipette puller (P-1000, Sutter Instrument). Dechorionated and anaesthetized embryos were infected with 50 colony-forming units (CFU) of mCherry-expressing S. aureus Newman by microinjection into the yolk sac at 30 hpf. In order to confirm bacterial numbers, an equal volume of bacterial cells was ejected onto Tryptic Soy Agar (TSA) supplemented with 10 µg/mL chloramphenicol before and after the injection. Antibiotic treatment was performed two hours post infection (hpi) via three different administration routes, namely bath water immersion and microinjection into the yolk sac as well as the caudal vein (CV). The infection procedure and treatment of infected embryos are described in details in the supplementary materials (Table S3).
Embryos were transferred individually to microcentrifuge tubes and washed at least three times with sterile PBS. 200 µL of sterile PBS were added and embryos were mechanically homogenized using a micropestle (Carl Roth, Karlsruhe, Germany). 800 µL of sterile PBS were added to reach a final volume of 1 mL. The homogenates were diluted and plated on tryptic soy agar (TSA). CFU counts were determined after 24 h of incubation at 37 °C.
Embryos were placed in a black 96-well plate (Falcon; Thermo Fisher, Dreieich, Germany) and cryo-anaesthetized by submersion into ice water. Images for quantitative fluorescence analysis were acquired using the following equipment: a fluorescence stereo microscope (M205 FA, Leica Microsystems, Wetzlar, Germany) in combination with a fluorescence illuminator (X-Cite, 200DC, Excelitas Technologies, Waltham, MA, USA) and a microscope camera (DFC7000 T, Leica Microsystems). Quantification of fluorescence was performed using Fiji ImageJ version 2.1.0. Fluorescent Integrated Density (FID) was determined by counting the number of pixels with fluorescence intensity greater than the threshold (10) and multiplying the count with its mean intensity. For confocal imaging, embryos were anaesthetized through immersion in tricaine (945 µM, Sigma-Aldrich) and immobilized in 1.2% low-melting agarose in a flat-bottom 96-well plate. Confocal images and time-lapse series were acquired using the Celldiscoverer 7 with LSM 900 (Zeiss) together with the 5×/0.35 Plan-APOCHROMAT objective.
2. […]

zebrafish embryos = experiment: Toxicity of antimicrobials on zebrafish embryos; format: in vivo, Danio rerio; conditions: bath water immersion 50x MIC, no bacteria recovered from dead embryos
Procedure: Toxicity of antibiotics was assessed by aquatic exposure and microinjection. For evaluation of the maximum tolerated concentration (MTC) by aquatic exposure, embryos were dechorionated at 30 hpf and placed in a flat-bottom 96-well plate (Sarstedt) with one embryo per well. Excess medium was removed and 150 µL of compound dilutions (in 0.3× Danieau’s, maximum of 1% DMSO) were added. For each antibiotic, a range of concentrations was investigated. Ten embryos were used per concentration and ten additional embryos incubated in fish medium without any antibiotic served as negative control. Microinjection of antibiotics into the caudal vein (CV) and the yolk sac was performed as described earlier. PBS-injected embryos served as negative control. Exposed embryos were maintained at 28 °C throughout the whole experiment. Embryos were monitored daily under a stereo microscope (Stemi 508, Zeiss) in order to record survival as well as anomalies, pigmentation, heartbeat and locomotor responses. An embryo was considered dead when no heart beat could be observed.

[4] = Staphylococcus aureus, S. aureus Newman WT, MHB2 broth microdilution, read-out: MIC
[5] = bath water immersion 50-100x MIC
[6] = caudal vein microinjection 20-30 mg/kg, 2 hpi
[7] = yolk microinjection 20-30 mg/kg, 2 hpi
[8] = S. aureus Newman mCherry, MHB2 broth microdilution
[9] = S. aureus Newman WT, MHB2 broth microdilution

| Compound | MIC [2, 4] [µg/mL] | bacterial fluorescence (FID) at 24 hpt ([3]; bath water immersion) | effect on survival of infected embryos [3, 5] | bacterial fluorescence (FID) at 24 hpt ([3]; caudal vein microinjection) | effect on survival of infected embryos [3, 6] | bacterial fluorescence (FID) at 24 hpt ([3]; yolk microinjection) | effect on survival of infected embryos [3, 7] | also measured |
| --- | --- | --- | --- | --- | --- | --- | --- | --- |
| CC1(C)S[C@@H]2[C@H](NC(=O)[C@H](N)c3ccccc3)C(=O)N2[C@H]1C(=O)O [ampicillin] | 0.125 (≈ 0.358 µM) |  |  |  |  |  |  | MIC ([1]; Staphylococcus aureus, NEWMAN): 0.5 µg/mL (≈ 1.43 µM) |
| Cc1nnc(SCC2=C(C(=O)O)N3C(=O)[C@@H](NC(=O)Cn4cnnn4)[C@H]3SC2)s1 [cefazolin] |  | FID values equal to the positive control | did not show any effect | No fluorescence was observed | exhibit treatment efficacy | No fluorescence was observed | exhibit treatment efficacy | bacteria recovered (CFU plating) at 120 hpf ([3]; caudal vein microinjection): no colonies were recovered; bacteria recovered (CFU plating) at 120 hpf ([3]; yolk microinjection): no colonies were recovered |
| O=C(N[C@H](CO)[C@H](O)c1ccc([N+](=O)[O-])cc1)C(Cl)Cl [chloramphenicol] | 8 (≈ 24.8 µM) |  |  |  |  |  |  | MIC ([1]; Staphylococcus aureus, NEWMAN): 64 µg/mL (≈ 198 µM) |
| O=C(O)c1cn(C2CC2)c2cc(N3CCNCC3)c(F)cc2c1=O [ciprofloxacin] | 0.25 (≈ 0.754 µM) | a decrease in FID values | slightly prolong survival | No fluorescence was observed | exhibit treatment efficacy | No fluorescence was observed | exhibit treatment efficacy | embryos died due to infection ([3]; bath water immersion, 50 CFU yolk infection): more than 80%; bacteria recovered (CFU plating) at 120 hpf ([3]; caudal vein microinjection): no colonies were recovered; bacteria recovered (CFU plating) at 120 hpf ([3]; yolk microinjection): no colonies were recovered |
| CC[C@H]1OC(=O)[C@H](C)[C@@H](O[C@H]2C[C@@](C)(OC)[C@@H](O)[C@H](C)O2)[C@H](C)[C@@H](O[C@@H]2O[C@H](C)C[C@H](N(C)C)[C@H]2O)[C@](C)(OC)C[C@@H](C)C(=O)[C@H](C)[C@@H](O)[C@]1(C)O [clarithromycin] | 0.25 (≈ 0.334 µM) |  |  |  |  |  |  |  |
| CCCCCCCCCC(=O)N[C@@H](Cc1c[nH]c2ccccc12)C(=O)N[C@H](CC(N)=O)C(=O)N[C@@H](CC(=O)O)C(=O)N[C@@H]1C(=O)NCC(=O)N[C@@H](CCCN)C(=O)N[C@@H](CC(=O)O)C(=O)N[C@H](C)C(=O)N[C@@H](CC(=O)O)C(=O)NCC(=O)N[C@H](CO)C(=O)N[C@@H]([C@H](C)CC(=O)O)C(=O)N[C@@H](CC(=O)c2ccccc2N)C(=O)O[C@@H]1C [daptomycin] | 2 (≈ 1.23 µM) |  |  |  |  |  |  |  |
| CC[C@H]1OC(=O)[C@H](C)[C@@H](O[C@H]2C[C@@](C)(OC)[C@@H](O)[C@H](C)O2)[C@H](C)[C@@H](O[C@@H]2O[C@H](C)C[C@H](N(C)C)[C@H]2O)[C@](C)(O)C[C@@H](C)C(=O)[C@H](C)[C@@H](O)[C@]1(C)O [erythromycin] | 0.25 (≈ 0.341 µM) |  |  |  |  |  |  |  |
| CNC(C)C1CCC(N)C(OC2C(N)CC(N)C(OC3OCC(C)(O)C(NC)C3O)C2O)O1 (centres unmarked) [gentamicin] | 0.5 (≈ 1.05 µM) |  |  |  |  |  |  |  |
| NC[C@H]1O[C@H](O[C@H]2[C@H](O)[C@@H](O[C@H]3O[C@H](CO)[C@@H](O)[C@H](N)[C@H]3O)[C@H](N)C[C@@H]2N)[C@H](O)[C@@H](O)[C@@H]1O [kanamycin] |  |  |  |  |  |  |  | MIC [1, 8]: 4 µg/mL (≈ 8.26 µM); MIC [2, 9]: 4 µg/mL (≈ 8.26 µM) |
| CC(=O)NC[C@H]1CN(c2ccc(N3CCOCC3)c(F)c2)C(=O)O1 [linezolid] | 2 (≈ 5.93 µM) | No fluorescence was recorded | significantly (p < 0.0001) prolonged the survival | No fluorescence was recorded | significantly (p < 0.0001) prolonged the survival | No fluorescence was recorded | significantly (p < 0.0001) prolonged the survival | cause of death of embryos in immersion group (zebrafish embryos): potential toxic effect; recovery from infection (fluorescence microscopy and CFU plating) ([3]; bath water immersion 50x MIC): full recovery from infection; survival ([3]; bath water immersion, treatment 2 hpi, 50 CFU yolk infection, until 120 hpf): 90%; mortality rate ([3]; yolk and caudal vein injection 2 hpi, 50 CFU yolk infection): greater than 75%; bacterial numbers ([3]; yolk and caudal vein injection, embryos with lethal infection): exceeding 10^5 CFU/embryo |
| CN(C)[C@@H]1C(O)=C(C(N)=O)C(=O)[C@@]2(O)C(O)=C3C(=O)c4c(O)cccc4[C@@](C)(O)[C@H]3C[C@@H]12 [tetracycline] | 0.25 (≈ 0.563 µM) | FID values equal to the positive control | did not show any effect | No fluorescence was observed | exhibit treatment efficacy | No fluorescence was observed | exhibit treatment efficacy | bacteria recovered (CFU plating) at 120 hpf ([3]; caudal vein microinjection): no colonies were recovered; bacteria recovered (CFU plating) at 120 hpf ([3]; yolk microinjection): no colonies were recovered |
| NC[C@H]1O[C@H](O[C@H]2[C@H](O)[C@@H](O[C@H]3O[C@H](CO)[C@@H](O)[C@H](N)[C@H]3O)[C@H](N)C[C@@H]2N)[C@H](N)C[C@@H]1O [tobramycin] | 0.5 (≈ 1.07 µM) |  |  |  |  |  |  |  |
| CN[C@H](CC(C)C)C(=O)N[C@H]1C(=O)N[C@@H](CC(N)=O)C(=O)N[C@H]2C(=O)N[C@H]3C(=O)N[C@H](C(=O)N[C@H](C(=O)O)c4cc(O)cc(O)c4-c4cc3ccc4O)[C@H](O)c3ccc(c(Cl)c3)Oc3cc2cc(c3O[C@@H]2O[C@H](CO)[C@@H](O)[C@H](O)[C@H]2O[C@H]2C[C@](C)(N)[C@H](O)[C@H](C)O2)Oc2ccc(cc2Cl)[C@H]1O [vancomycin] |  | no reduction in bacterial fluorescence | No increased survival | no reduction in bacterial fluorescence | No increased survival | no development of fluorescence | prevented embryo death | survival ([3]; yolk microinjection (local treatment) 2 hpi, 50 CFU yolk infection): 90%; colonies recovered at the end of the experiment ([3]; yolk-treated embryos): 0–2500 CFU; MIC ([1]; Staphylococcus aureus, NEWMAN): 2 µg/mL (≈ 1.38 µM); MIC ([2]; Staphylococcus aureus, NEWMAN): 2 µg/mL (≈ 1.38 µM) |
| teicoplanin |  |  |  |  |  |  |  | MIC [1, 8]: 1 µg/mL; MIC [2, 9]: 1 µg/mL |
